Measured values as given in patent publication US8569339B2, “Soluble guanylate cyclase activators” (Boehringer Ingelheim International GmbH, priority 2011, dated 2013).
≈ marks a conversion by molar mass, not a printed value.

Key:
[1] = target: T1, Recombinant human soluble guanylate cyclase (sGC) (Homo sapiens, UniProt Q02153); assay: Molecular assay: activation of heme-free sGC, cGMP detection (CisBio kit); type: biochemical; conditions: 300 pM heme-free sGC, 37° C., 60 minutes, cGMP formation
T1 construct: histidine tag (C); made in house; host or cells: Sf9 insect cells (baculovirus coinfection)
T1 sequence (Q02108 whole entry partner): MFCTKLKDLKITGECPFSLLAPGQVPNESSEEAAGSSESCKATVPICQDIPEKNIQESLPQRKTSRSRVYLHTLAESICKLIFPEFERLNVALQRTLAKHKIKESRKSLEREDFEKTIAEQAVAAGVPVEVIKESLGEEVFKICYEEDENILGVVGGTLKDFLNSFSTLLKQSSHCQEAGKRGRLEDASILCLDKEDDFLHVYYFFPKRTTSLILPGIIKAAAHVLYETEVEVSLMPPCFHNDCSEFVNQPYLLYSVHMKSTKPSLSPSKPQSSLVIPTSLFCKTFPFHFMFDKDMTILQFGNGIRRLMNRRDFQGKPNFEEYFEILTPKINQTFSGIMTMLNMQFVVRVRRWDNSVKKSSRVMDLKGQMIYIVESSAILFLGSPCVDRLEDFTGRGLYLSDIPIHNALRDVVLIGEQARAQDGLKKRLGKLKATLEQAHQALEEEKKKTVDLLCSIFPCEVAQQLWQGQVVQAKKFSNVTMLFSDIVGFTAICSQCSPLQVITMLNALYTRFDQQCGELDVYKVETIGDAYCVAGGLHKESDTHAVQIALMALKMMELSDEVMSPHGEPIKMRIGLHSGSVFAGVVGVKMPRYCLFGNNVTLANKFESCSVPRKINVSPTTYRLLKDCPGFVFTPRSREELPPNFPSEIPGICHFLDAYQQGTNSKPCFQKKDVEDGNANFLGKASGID
T1 sequence (Q02153 whole entry): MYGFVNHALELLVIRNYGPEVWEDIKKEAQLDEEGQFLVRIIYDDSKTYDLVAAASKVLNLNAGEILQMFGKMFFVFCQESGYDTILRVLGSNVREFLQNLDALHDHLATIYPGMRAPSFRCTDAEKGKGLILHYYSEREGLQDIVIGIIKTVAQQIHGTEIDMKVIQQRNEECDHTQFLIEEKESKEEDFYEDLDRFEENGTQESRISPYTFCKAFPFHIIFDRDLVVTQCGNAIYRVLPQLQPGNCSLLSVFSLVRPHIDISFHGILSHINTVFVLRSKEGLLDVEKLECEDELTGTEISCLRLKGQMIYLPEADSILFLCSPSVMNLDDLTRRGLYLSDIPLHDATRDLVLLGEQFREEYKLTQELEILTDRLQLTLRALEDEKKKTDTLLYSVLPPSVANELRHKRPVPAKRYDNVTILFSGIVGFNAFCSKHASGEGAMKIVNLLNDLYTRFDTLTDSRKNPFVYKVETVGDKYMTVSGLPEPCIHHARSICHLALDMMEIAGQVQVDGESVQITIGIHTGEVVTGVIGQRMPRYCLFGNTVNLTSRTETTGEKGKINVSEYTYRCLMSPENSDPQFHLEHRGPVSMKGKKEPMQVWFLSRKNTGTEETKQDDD
Procedure: The compounds of the invention may be evaluated in the following molecular assay:
Recombinant human soluble guanylate cyclase (sGC) is purified from Sf9 insect cells coinfected with baculoviruses expressing the alpha 1 or beta 1 subunit of sGC, both with a C-terminal histidine tag. Heme-free sGC is prepared by treating cell lysate with a final concentration of 0.5% Tween 20 prior to purification on a nickel affinity column.
sGC catalyzes the conversion of guanosine-5′-triphosphate (GTP) to cyclic guanosine monophosphate (cGMP). The activity of sGC is measured in vitro using the commercially available CisBio cGMP detection kit (catalog #62GM2PEB) in a 384 well format. In brief, 300 pM heme-free sGC is incubated in reaction buffer (50 mM MOPS pH 6.8, 0.2 N KOH, 50 mM NaCl, 2 mM MgCl2, 0.1% BSA, 1.25 mM IBMX, 0.25 mM TCEP, 50 nM GTP) in the presence or absence of dilutions of test compounds diluted in DMSO (final concentration of 1%) in a volume of 10 microL at 37° C. for 60 minutes. Undiluted reaction products or an 80-fold dilution of reaction products (10 microL of either) prepared in reaction buffer containing 0.2 mM TCEP and 10 mM EDTA is mixed with 5 microL of d2-cGMP plus 5 microL of Eu^3+cryptate-labeled anti-cGMP, each diluted in buffer containing 0.1 M KPO4 pH 7.5, 0.4 M KF, 20 mM EDTA, 0.2% BSA. After a one hour incubation at room temperature in the dark, the mixtures are quantified on an EnVision plate reader (PerkinElmer) according to manufacturer instructions (laser excitation 337 nm, emission 620 and 665 nm). The ratio at each compound concentration is converted to nM cGMP using the linear portion of a calibration curve. Log compound concentration is plotted against combined undiluted and diluted nM cGMP values to determine the EC50 for each curve.
Representative compounds of the present invention were tested for activity in the above assay. Preferred compounds have an IC50<5,000 nM and more preferred compounds have an IC50<100 nM in this assay.

[2] = Assessment of solubility (HT solubility, pION, UV); type: physicochemical; conditions: incubated 16-19 hours, 1.0% DMSO, 100 uM; for solubility kinetic: pH 4.5 buffer (pION system solution), pH 4.5, aqueous buffer, kinetic from dmso stock, pH 4.5 buffer, read-out: Sol pH 4.5; for Sol pH 7.4: pH 7.4 buffer
Procedure: Solubility is measured by the following method.
DMSO stock samples at 10 mM conc are prepared. […] The samples are pierced and 100 ul of thawed samples are transferred into the PCR plate for analysis. Each sample is run in duplicate at each pH (pH 4.5 and 7.4). Up to 95 samples can be run in replicate at 2 pH's+1 DMSO (blank).
2. Preparation of pH 4.5 and 7.4 buffers:
pH 4.5 buffer: To 12.5 of system solution (pION) qs to 500 mL of distilled water (pH 2.85-2.90); adjust the pH to pH 4.5 with 0.5 N NaOH.
pH 7.4 buffer: To 12.5 of system solution (pION) qs to 500 mL of distilled water (pH 2.85-2.90); adjust the pH to pH 7.4 with 0.5N NaOH.
Preparation of UV blank plate:
75 ul of buffer (pH 7.4 or pH 4.5) is added to UV plate followed by addition of […] of N-propanol. The solution is mixed and the blank spectrum is read using spectrophotometer.
Preparation of Reference UV plate:
10 ul of each stock sample (including DMSO control) is added to 190 ul of N-propanol to prepare the reference stock plate. Reference stock samples are mixed and 5 ul of each stock sample is added to UV blank plate after it is read spectrophotometrically. The reference stock sample is mixed with blank solution in UV plate and the reference spectrum is read using UV spectrophotometer.
Preparation of sample for incubation:
Solubility at pH 7.4: 6 ul of each stock sample (including DMSO control) is added to the storage plate containing 600 ul of pH 7.4 buffer, mixed and incubated for 16-19 hours. The plate is sealed well during the incubation process. The DMSO content in the sample is 1.0%. The concn in deep well plates is 100 uM
6 ul of each stock sample (including DMSO control) is added to the deep well plate containing 600 ul of pH 4.5 buffer, mixed and incubated for 16-19 hours. The plate is sealed well during the incubation process. The DMSO content in the sample is 1.0%. The concn in deep well plates is 100 uM
Preparation of sample UV plate:
At the end of the incubation period, 100 uL of sample from the storage plate is vacuum filtered using a filter plate. This step wets the filters and the filtrate is discarded. Another 200 ul of the sample from the deep well plate is vacuum filtered using the same filter block but a clean filter plate. 75 ul of the filtrate from the filter plate is transferred to a UV sample plate. 75 ul of N-propanol is added to this UV plate. The solution is mixed and the spectrum is read using the UV spectrophotometer.
The spectra collected for blank, reference and sample from 250-498 nm is analyzed using pION software. If the sample precipitates out, the solubility is reported as XX μg/ml. If there is no precipitation and the sample is soluble, solubility is reported as […] (YY being the initial concentration of the compound in the sample).

EC50 [1] [nM]	solubility kinetic [2] [µg/mL]	Sol pH 7.4 [2] [μg/mL]	Compound
148	> 62	>62	Cc1ccc(OCc2ccc3c(c2)CCN(S(=O)(=O)CC(=O)O)C3)c(-c2cccc(-n3ncc(C(=O)O)c3C(F)(F)F)n2)c1 [Compound 1]
46	6.5 (≈ 12.4 µM)	6.1	Cc1ccc(OCc2ccc3c(c2)CCN(C)C3)c(-c2cccc(-n3ncc(C(=O)O)c3C(F)(F)F)n2)c1 [Compound 2, 1-{6-[5-methyl-2-(2-methyl-1,2,3,4-tetrahydroisoquinolin-6-ylmethoxy)phenyl]pyridin-2-yl}-5-trifluoromethyl-1H-pyrazole-4-carboxylic acid]
27	0.8 (≈ 1.21 µM)	>65	Cc1ccc(OCc2ccc3c(c2)CCN(S(=O)(=O)CCCC(=O)O)C3)c(-c2cccc(-n3ncc(C(=O)O)c3C(F)(F)F)n2)c1 [Compound 3, 1-(6-{2-[2-(3-carboxypropane-1-sulfonyl)-1,2,3,4-tetrahydroisoquinolin-6-ylmethoxy]-5-methylphenyl}pyridin-2-yl)-5-trifluoromethyl-1H-pyrazole-4-carboxylic acid]
575	17.6 (≈ 34.6 µM)	21.7	Cc1ccc(OCc2ccc3c(c2)CCNC3)c(-c2cccc(-n3ncc(C(=O)O)c3C(F)(F)F)n2)c1 [Compound 4, 1-{6-[5-Methyl-2-(1,2,3,4-tetrahydroisoquinolin-6-ylmethoxy)phenyl]pyridin-2-yl}-5-trifluoromethyl-1H-pyrazole-4-carboxylic acid]
33	0.1 (≈ 0.17 µM)	>58	Cc1ccc(OCc2ccc3c(c2)CCN(S(C)(=O)=O)C3)c(-c2cccc(-n3ncc(C(=O)O)c3C(F)(F)F)n2)c1 [Compound 5]
78	0.5 (≈ 0.908 µM)	>54	CC(=O)N1CCc2cc(COc3ccc(C)cc3-c3cccc(-n4ncc(C(=O)O)c4C(F)(F)F)n3)ccc2C1 [Compound 6, 1-{6-[2-(2-acetyl-1,2,3,4-tetrahydroisoquinolin-6-ylmethoxy)-5-methylphenyl]pyridin-2-yl}-5-trifluoromethyl-1H-pyrazole-4-carboxylic acid]
490	2.1 (≈ 4.11 µM)	>51	Cc1ccc(OCc2ccc3snnc3c2)c(-c2cccc(-n3ncc(C(=O)O)c3C(F)(F)F)n2)c1 [Compound 7, 1-{6-[2-(benzo[1,2,3]thiadiazol-5-ylmethyoxy)-5-methylphenyl]pyridin-2-yl}-5-trifluoromethyl-1H-pyrazole-4-carboxylic acid]
280	6.9 (≈ 12.9 µM)	>53	Cc1ccc(OCc2ccc3c(c2)CCN(C)C3=O)c(-c2cccc(-n3ncc(C(=O)O)c3C(F)(F)F)n2)c1 [Compound 8]
67	0.4 (≈ 0.699 µM)	>54	Cc1ccc(OCc2ccc3c(c2)CCN3S(C)(=O)=O)c(-c2cccc(-n3ncc(C(=O)O)c3C(F)(F)F)n2)c1 [Compound 9, 1-{6-[2-(1-methanesulfonyl-2,3-dihydro-1H-indol-5-ylmethyoxy)-5-methylphenyl]pyridin-2-yl}-5-trifluoromethyl-1H-pyrazole-4-carboxylic acid]
280	0.95 (≈ 1.87 µM)	>50	Cc1ccc(OCc2ccc3c(c2)nnn3C)c(-c2cccc(-n3ncc(C(=O)O)c3C(F)(F)F)n2)c1 [Compound 10]
19	> 54	>54	Cc1ccc(OCc2ccc3c(c2)CCN(C2CC2)C3)c(-c2cccc(-n3ncc(C(=O)O)c3C(F)(F)F)n2)c1 [Compound 12]
79	8.1 (≈ 15.5 µM)	>52	Cc1ccc(OCc2ccc3c(c2)N(C)CCC3)c(-c2cccc(-n3ncc(C(=O)O)c3C(F)(F)F)n2)c1 [Compound 13]
11	> 79	44.4	Cc1ccc(OCc2ccc3c(c2C)CCN(CC2CCOC2)C3)c(-c2cccc(-c3csc(C(=O)O)c3C)n2)c1 (centres unmarked) [Compound 14]
33	> 67	>67	Cc1ccc(OCc2ccc3c(c2)CCN(C2CCC2)C3)c(-c2cccc(-n3ncc(C(=O)O)c3C(F)(F)F)n2)c1 [Compound 16]
13	44.3 (≈ 76.8 µM)	>68	Cc1ccc(OCc2ccc3c(c2)CCN(C2CCCC2)C3)c(-c2cccc(-n3ncc(C(=O)O)c3C(F)(F)F)n2)c1 [Compound 17]
0.8	> 59	>59	Cc1ccc(OCc2ccc3c(c2)CCN(Cc2ccccn2)C3)c(-c2cccc(-n3ncc(C(=O)O)c3C(F)(F)F)n2)c1 [Compound 18]
2	> 58	>58	Cc1ccc(OCc2ccc3c(c2)CCN(C2CCCCC2)C3)c(-c2cccc(-n3ncc(C(=O)O)c3C(F)(F)F)n2)c1 [Compound 19]
4	7.8 (≈ 12.7 µM)	10.7	Cc1ccc(OCc2ccc3c(c2)CCN(CCc2ccccc2)C3)c(-c2cccc(-n3ncc(C(=O)O)c3C(F)(F)F)n2)c1 [Compound 20]
25	> 55	>55	Cc1ccc(OCc2ccc3c(c2)CCN(C(C)C)C3)c(-c2cccc(-n3ncc(C(=O)O)c3C(F)(F)F)n2)c1 [Compound 21]
1	> 59	>59	Cc1ccc(OCc2ccc3c(c2)CCN(C2CCCOC2)C3)c(-c2cccc(-n3ncc(C(=O)O)c3C(F)(F)F)n2)c1 (centres unmarked) [Compound 22]
2	> 59	>59	Cc1ccc(OCc2ccc3c(c2)CCN(CC2CCOC2)C3)c(-c2cccc(-n3ncc(C(=O)O)c3C(F)(F)F)n2)c1 (centres unmarked) [Compound 23]
9	40 (≈ 66.6 µM)	>59	Cc1ccc(OCc2ccc3c(c2)CCN(Cc2cnccn2)C3)c(-c2cccc(-n3ncc(C(=O)O)c3C(F)(F)F)n2)c1 [Compound 24]
180	–	–	Cc1cccc(-c2cccc(-c3ncc(C(=O)O)n3C)n2)c1OCc1ccc2c(c1)CCN(CC1CCOCC1)C2 [Compound 68]
8	–	–	Cc1csc(CN2CCc3cc(COc4c(C)cccc4-c4cccc(-c5ncc(C(=O)O)n5C)n4)ccc3C2)n1 [Compound 69]
